This is an account of results in patent US8999984B2, “Macrophage migration inhibitory factor antagonists and methods of using same” (University of Louisville Research Foundation, Inc., priority 2006, dated 2015).

Assay [1] deals with HIF-1α. Put plainly: CoCl2-induced HIF-1α stabilization in MIA-PaCa pancreatic adenocarcinoma cells (nuclear lysate immunoblot). Format: cell-based, human. The method, then:
FIGS. 9A-9C are pictures of immunoblots showing MIF tautomerase inhibitors block HIF-1 stabilization in an MIF-specific manner. […] After 5 hours, nuclear lysates were isolated and subjected to immunoblotting for HIF-1. In FIGS. 9A and 9B, MIA-PaCa pancreatic adenocarcinoma cells were used. In FIG. 9C, MIF+/+ and MIF−/− mouse embryonic fibroblasts were evaluated.
As noted hereinabove, (see FIG. 4), it has been determined that MIF is necessary for hypoxia and prolyl hydroxylase inhibitor-induced HIF-1αstabilization and subsequent hypoxic adaptation of pancreatic adenocarcinoma cells. It was next tested whether MIF pharmacologic inhibitors were capable of recapitulating the destabilizing effects on HIF-1α we had observed using MIF siRNA (FIG. 4). In addition to testing the newly-determined MIF antagonist 4-iodo-6-phenylpyrimidine (also referred to as “compound #16”), the TI compound identified in the Orita screen (FIG. 8) was also tested.
(In general: In western blotting, separated proteins are transferred to a membrane and probed.)

Assay [2] deals with A549 human lung adenocarcinoma cells. Put plainly: A549 NSCLC xenograft tumor outgrowth. The class given is in vivo, Balb/c (nu/nu) mice. To be noted: 2 mg intraperitoneally every day; vehicle mice developed lesions beginning at day 16; FIG. 12. As for the experimental part: FIG. 12 is a graph showing Inhibition of NSCLC tumor growth by the MIF inhibitor 4-iodo-6-phenylpyrimidine. Balb/c (nu/nu mice were injected with 1×10^6 A549 human lung adenocarcinoma cells subcutaneously (4 mice/group). Vehicle or 4-iodo-6-phenylpyrimidine (Cmpd 16; 2 mg) were injected intraperitoneally every day for the course of the study. Tumor growth was monitored by palpation every fourth day as indicated. Results are expressed as percent of tumor free mice/group.
In a study designed to evaluate the in vivo efficacy of anti-MIF compounds, 4-iodo-6-phenylpyrimidine (compound #16) was tested in a xenograft model of human non-small cell lung cancer (NSCLC) outgrowth.

Assay [3] shares this test system. Put plainly: A549 anchorage-independent growth in soft agar. The class given is cell-based. As to conditions: FIG. 11. As for the experimental part: FIG. 11 is a graph showing inhibitors of MIF prevent anchorage-independent growth. 10^5 A549 human lung adenocarcinoma cells were plated in soft agar, containing vehicle (0.1% DMSO) or 10, 50 or 100 μM ISO-1 or 4-iodo-6-phenylpyrimidine (CMPD 16). 20 days later, colonies were stained and enumerated. Data are representative of two independent experiments.

In assay [4] the test system is HIF-1α. Put plainly: Total HIF-1α ELISA, CoCl2-induced HIF stabilization. The class given is cell-based. As to conditions: Homo sapiens, compound #16 at 50 μM, read-out: inhibition of CoCl2-induced HIF stabilization, of control. The text has this:
Screening of HIF-1α de-stabilization by candidate MIF inhibitors. The presently disclosed discovery that MIF plays a central role in HIF stability was from studies done in pancreatic adenocarcinoma cell lines. […] This cell line can be utilized for large scale testing of candidate MIF antagonists. In order to scale up this in vitro screen, a DuoSet ELISA-based assay to detect total HIF-1α in human cell lysates can be utilized (R & D Systems). […] MIA-Paca-2 cells can be plated at 5×10^5 cells/well in 24 well plates for 16 hours. Media can be replaced with fresh media containing 0.1% DMSO (− control), 50 μM #16 (+ control) and 5, 50 μM concentrations of test inhibitor, all in duplicate wells. After 1 hour, cells can be challenged with 150 μM CoCl2 for an additional 6 hours. After rinsing the cells twice with PBS, supplied kit lysis buffer can be used to lyse the cells following manufacturer's directions. Prior coating and blocking of HIF-1α capture antibody can be performed according to instructions and diluted cell lysates can be assayed on the HIF-1α ELISA plates.
(An ELISA detects its analyte on a solid surface through an enzyme-linked reagent.)

Structures are written as SMILES.

The inhibition is the percentage by which the read-out fell short of the control. For `Ic1cc(-c2ccccc2)ncn1` [compound #16, 4-iodo-6-phenylpyrimidine], the “suppression of HIF-1α, of control” value in the assay with HIF-1α [1] (10 μM, FIG. 9B) is reported as roughly 50%. Besides, the “inhibition of CoCl2-induced HIF-1α stabilization” value in the assay with HIF-1α [1] (100 μM, pancreatic carcinoma cells, FIG. 9A) is “completely inhibited”. In the assay on HIF-1α [1] (4-iodo-6-phenylpyrimidine versus TI), the “difference in biological inhibitory activity (HIF-1α) between #16 and TI” value is recorded as roughly 5 fold. Besides, the “tumor outgrowth (tumor free mice)” value in assay [2] is listed as “remained tumor free”. The “inhibition of A549 soft agar growth” value in assay [3] (10, 50 or 100 μM, 20 days) is listed as “inhibit A549 soft agar growth”. In assay [3], the “potency relative to ISO-1, soft agar growth” value is 5-10 fold. In addition, in the assay on HIF-1α [4], the inhibition at 50 µM was 75 to 90%.
